According to patent publication US20100099847A1 (Kyowa Hakko Bio Co., Ltd., priority 2006, published 2010):

Tests used:
[1] = volume median diameter
Protocol: This is synonymous with volume median diameter, and it was measured using a laser diffraction and scattering particle diameter analyzer, the LMS-24 SK Laser Micron Sizer (Seishin Enterprise Co. Ltd.) and expressed as a cumulative 50% volume particle diameter.

[2] = width of approximately 300 crystals
Protocol: The crystals were observed and photographed using a VH-8000 digital microscope (Keyence Corporation). The width of approximately 300 crystals was measured and calculations performed.

Row | Structure (SMILES) | Average particle diameter [1] [μm] | Average width [2] [μm]
1 | N[C@@H](CCC(=O)N[C@@H](CS)C(=O)NCC(=O)O)C(=O)O [Commercial product A, glutathione] | 9 | –
2 | N[C@@H](CCC(=O)N[C@@H](CS)C(=O)NCC(=O)O)C(=O)O [commercial product B, glutathione] | – | 3
